15 compounds from patent publication US8703957B2 (Janssen Pharmaceutica NV, priority 2001, dated 2014) can be followed below.

Assay [1] deals with Ascaris suum antigen-induced asthmatic response in conscious sheep. The experiment in a line: Ascaris suum antigen-induced asthmatic response in conscious sheep: specific lung resistance and airway hyperreactivity. Type of assay: in vivo. Here is the method:
The efficacy of Compound 2 for the treatment of asthma was evaluated in a validated model of Ascaris suum antigen-induced asthmatic response in conscious sheep (Abraham, W. M., Pharmacology of allergen-induced early and late airway responses and antigen-induced airway hyperresponsiveness in allergic sheep, Pulmonary Pharmacology, 1989, 2, 33-40).
(§1) Baseline dose response curves to aerosol carbachol were obtained 1-3 days prior to antigen challenge. Baseline values of specific lung resistance (SRL) were obtained and the sheep were then given a specified amount (mg) of the test compound as an inhaled aerosol at a specified time before antigen challenge. Post drug measurements of SRL were obtained and the sheep were then challenged with Ascaris suum antigen. Measurements of SRL were obtained immediately after challenge, hourly from 1-6 h after challenge and on the half-hour from 6½-8 h after challenge. Measurements of SRL were obtained 24 h after challenge followed by a 24 h post-challenge with carbachol to measure airway hyperreactivity.
Compound 2 was administered as an aerosol at 0.1 mg/Kg/dose, twice-a-day (BID) for three consecutive days, followed by a dose on day 4, 0.5 h prior to antigen challenge. Ascaris suum antigen challenge was given at the zero time point.

The subject of assay [2] is inflammatory cell numbers in the broncho-alveolar lavage (BAL) fluid. As to the kind of experiment: Inflammatory cell counts in broncho-alveolar lavage (BAL) fluid of antigen-challenged sheep. Type of assay: in vivo. Here is the method:
as §1, with “hyperreactivity. […] Ascaris suum antigen challenge was given at the zero time point.” for “hyperreactivity.”

Assay [3] shares this test system. Described as above. Type of assay: in vivo. To be noted: 1.0 mg/kg × 4 days, last dose 30 min prior to antigen challenge.
Assay [4] addresses T1, human neutrophil cathepsin G (Homo sapiens, UniProt P08311).
T1 construct: human neutrophil cathepsin G (Athens Research and Technology); purchased Athens Research and Technology; host or cells: human neutrophils (from the enzyme's name)
T1 sequence (P08311 21-243 limits assumed): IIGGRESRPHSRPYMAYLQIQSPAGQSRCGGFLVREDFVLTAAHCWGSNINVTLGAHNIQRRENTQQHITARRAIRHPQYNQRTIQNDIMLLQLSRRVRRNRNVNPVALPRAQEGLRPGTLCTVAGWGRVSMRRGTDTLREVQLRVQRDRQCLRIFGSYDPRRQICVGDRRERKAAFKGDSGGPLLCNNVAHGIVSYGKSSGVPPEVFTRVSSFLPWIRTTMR
The experiment in a line: Enzyme-catalyzed hydrolysis assay, cathepsin G (chromogenic substrate Suc-Ala-Ala-Pro-Phe-pNa). To be noted: 70 nM enzyme, 5 mM substrate, pH 7.4, 37° C., 30 minutes; read-out: IC50 (μM) CatG. Type of assay: biochemical. Here is the method:
(§2) Enzyme-catalyzed hydrolysis rates were measured spectrophotometrically using human neutrophil cathepsin G (Athens Research and Technology) or human skin chymase (Cortex Biochem), a chromogenic substrate (Suc-Ala-Ala-Pro-Phe-pNa) (Bachem) in aqueous buffer (100 mM Hepes, 500 mM NaCl, pH 7.4 for catG; 450 mM Tris, 1800 mM NaCl, pH 8.0 for chymase), and a microplate reader (Molecular Devices). […] Percent inhibition was calculated by comparing the initial reaction slopes of the samples without inhibitor to those with inhibitor. IC50 values were determined using a four parameter fit logistics model. The term “NT” indicates a compound that was not tested.

The target of a further assay is T2, human skin chymase (Homo sapiens, UniProt P23946).
T2 construct: human skin chymase (Cortex Biochem); purchased Cortex Biochem; host or cells: human skin (from the enzyme's name)
T2 sequence (P23946 22-247): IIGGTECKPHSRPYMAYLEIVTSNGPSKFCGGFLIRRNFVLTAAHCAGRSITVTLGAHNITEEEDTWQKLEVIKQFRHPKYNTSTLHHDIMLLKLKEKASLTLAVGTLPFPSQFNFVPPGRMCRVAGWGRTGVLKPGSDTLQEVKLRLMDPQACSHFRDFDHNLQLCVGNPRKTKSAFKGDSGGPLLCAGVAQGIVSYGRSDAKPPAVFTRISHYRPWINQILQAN
The experiment in a line: Enzyme-catalyzed hydrolysis assay, chymase (chromogenic substrate Suc-Ala-Ala-Pro-Phe-pNa). Type of assay: biochemical. To be noted: 10 nM enzyme, 0.7 mM substrate, pH 8.0, 37° C., 30 minutes. As for the experimental part: as §2

[5] abbreviates: 8 h Post Antigen, 1.0 mg/kg × 4 days, last dose 30 min prior to antigen challenge.
[6] abbreviates: 24 h Post Antigen, 1.0 mg/kg × 4 days, last dose 30 min prior to antigen challenge.
The mark [7] stands for this setting: Baseline, 1.0 mg/kg × 4 days, last dose 30 min prior to antigen challenge.

As to `CN(C(=O)c1cc2ccccc2cc1C(=O)C(c1cccc2ccccc12)P(=O)(O)O)C1CCN(C(=O)c2ccc3ccccc3c2)CC1` (centres unmarked) [Compound 2, [2-[3-[[methyl[1-(2-naphthalenylcarbonyl)-4-piperidinyl]amino]carbonyl]-2-naphthalenyl]-1-(1-naphthalenyl)-2-oxoethyl]-phosphonic acid], the “early airway response (specific lung resistance, SRL)” value in assay [1] (0-2 h after antigen challenge, aerosol 0.1 mg/Kg/dose BID for three days plus dose on day 4, 0.5 h prior to challenge, n=4 sheep/group, FIG. 1) was “dramatically reduced”. Besides, the “late airway response (specific lung resistance, SRL)” value in assay [1] (6-8 h after antigen challenge, aerosol 0.1 mg/Kg/dose BID for three days plus dose on day 4, 0.5 h prior to challenge, n=4 sheep/group, FIG. 1) is reported as “completely blocked”. Further, the “delayed airway hyperreactivity measured using carbachol challenge (PC 400)” value in assay [1] (24 h post antigen challenge, FIG. 2) is “completely blocked”. Further, the figures for the “BAL Cell Count Lymphocytes” value in assay [2] (setting [5]), in assay [2] (setting [6]) and in assay [3] (Baseline) were 4.16 ± 1.10 × 1000/mL, 3.72 ± 0.77 × 1000/mL and 3.15 ± 0.79 × 1000/mL, respectively. Also, the “BAL Cell Count Neutrophils” value is reported as 3.17 ± 0.65 × 1000/mL in assay [2] (setting [5]), 12.66 ± 2.07 × 1000/mL in assay [2] (setting [7]) and 3.86 ± 0.95 × 1000/mL in assay [3] (24 h Post Antigen). The results for the “BAL Cell Count Macrophages” value in assay [2] (setting [6]), in assay [2] (setting [7]) and in assay [3] (8 h Post Antigen) were 75.16 ± 2.71 × 1000/mL, 69.06 ± 1.97 × 1000/mL and 77.85 ± 2.36 × 1000/mL, respectively. For the same compound, the “BAL Cell Count Eosinophils” value in assay [2] (setting [7]) is reported as 0.00 × 1000/mL; in assay [3] (8 h Post Antigen), 0.37 ± 0.32 × 1000/mL; in assay [3] (24 h Post Antigen), 0.04 ± 0.03 × 1000/mL. For the same compound, in assay [2] (after antigen challenge, sheep, summary of Table 5), the “rise in inflammatory cell numbers in the broncho-alveolar lavage (BAL) fluid” value is reported as “blocked”.

With `CN(CC12CC3CC(CC(C3)C1)C2)C(=O)c1cc2ccccc2cc1C(=O)C(c1cccc2ccccc12)P(=O)(O)O` (centres unmarked) [Compound 28, [2-[1-[[methyl(tricyclo[3.3.1^3,7]dec-1-ylmethyl)amino]carbonyl]-2-naphthalenyl]-1-(1-naphthalenyl)-2-oxoethyl]-phosphonic acid], the IC50 is 0.4 ± 0.09 µM in assay [4] and 0.036 ± 0.011 µM against human skin chymase.

In the case of `CN(C(=O)c1cc2ccccc2cc1C(=O)C(c1cccc2ccccc12)P(=O)(O)O)C1CC=C(c2ccccc2)CC1` (centres unmarked) [Compound 29, [2-[3-[[methyl(4-phenyl-3-cyclohexen-1-yl)amino]-carbonyl]-2-naphthalenyl]-1-(1-naphthalenyl)-2-oxoethyl]-phosphonic acid], the IC50 in assay [4] is 0.15 ± 0.03 µM; against human skin chymase it was 0.0082 ± 0.0028 µM.

Turning to `O=C(NC1CCN(C(=O)c2ccc3ccccc3c2)CC1)c1cc2ccccc2cc1C(=O)C(c1cccc2ccccc12)P(=O)(O)O` (centres unmarked) [Compound 30, [1-(1-naphthalenyl)-2-[3-[[[1-(2-naphthalenylcarbonyl)-4-piperidinyl]amino]carbonyl]-2-naphthalenyl]-2-oxoethyl]-phosphonic acid], the IC50 in assay [4] was determined as 0.59 ± 0.04 µM; against human skin chymase, 0.0158 ± 0.0008 µM.

Regarding `CN(C(=O)c1ccccc1C(=O)C(c1cccc2ccccc12)P(=O)(O)O)C1CCN(C(=O)c2ccc3ccccc3c2)CC1` (centres unmarked) [Compound 31, [2-[2-[[methyl[1-(2-naphthalenylcarbonyl)-4-piperidinyl]amino]carbonyl]phenyl]-1-(1-naphthalenyl)-2-oxoethyl]-phosphonic acid], the IC50 was > 100 µM in assay [4] and 15 ± 0.67 µM on human skin chymase.

For `CN(C(=O)c1cc2ccccc2cc1C(=O)C(c1cccc2ccccc12)P(C)(=O)O)C1CCN(C(=O)c2ccc3ccccc3c2)CC1` (centres unmarked) [Compound 32, methyl[2-[3-[[methyl[1-(2-naphthalenylcarbonyl)-4-piperidinyl]amino]carbonyl]-2-naphthalenyl]-1-(1-naphthalenyl)-2-oxoethyl]-phosphinic acid], the results for the IC50 (in assay [4]; at human skin chymase) were 0.86 ± 0.03 µM and 0.31 µM, respectively.

Take `CN(C(=O)c1cc2ccccc2cc1C(=O)C(c1csc2ccc(Cl)cc12)P(=O)(O)O)C1CCN(C(=O)c2ccc3ccccc3c2)CC1` (centres unmarked) [Compound 33, [1-(5-chlorobenzo[b]thien-3-yl)-2-[3-[[methyl[1-(2-naphthalenylcarbonyl)-4-piperidinyl]amino]carbonyl]-2-naphthalenyl]-2-oxoethyl]-phosphonic acid]: the IC50 in assay [4] amounted to 0.121 ± 0.007 µM; on human skin chymase, 0.001 µM.

In the case of `O=C(NC1CCN(C(=O)c2cc3ccccc3cc2C(=O)C(c2cccc3ccccc23)P(=O)(O)O)CC1)c1ccc2ccccc2c1` (centres unmarked) [Compound 34], the IC50 in assay [4] amounted to 0.09 ± 0.04 µM; against human skin chymase, 0.007 ± 0.001 µM.

As to “[2-[3-[(cyclohexylmethylamino)carbonyl]-2-naphthalenyl]-1-(1-naphthalenyl)-2-oxoethyl]-phosphonic acid [Compound 17]”, the results for the IC50 (in assay [4]; against human skin chymase) were 0.098 ± 0.026 µM and 0.0072 ± 0.0015 µM, respectively.

Take “[2-[3-[(cyclopentylmethylamino)carbonyl]-2-naphthalenyl]-1-(1-naphthalenyl)-2-oxoethyl]-phosphonic acid [Compound 21]”: the IC50 in assay [4] is 0.07 ± 0.02 µM; on human skin chymase, 0.0096 ± 0.0034 µM.

With “[2-[3-[[(1-acetyl-4-piperidinyl)methylamino]carbonyl]-2-naphthalenyl]-1-(1-naphthalenyl)-2-oxoethyl]-phosphonic acid [Compound 26]”, the results for the IC50 (in assay [4]; on human skin chymase) were 0.096 ± 0.018 µM and 0.015 ± 0.001 µM, respectively.

As to “[2-[3-[[[1-[(2E)-3-(4-fluorophenyl)-1-oxo-2-propenyl]-3-pyrrolidinyl]methylamino]carbonyl]-2-naphthalenyl]-1-(1-naphthalenyl)-2-oxoethyl]-phosphonic acid [Compound 5]”, the IC50 in assay [4] is 0.072 ± 0.021 µM; against human skin chymase, 0.2 ± 0.4 µM.

Regarding “[2-[3-[[[1-[(6-hydroxy-2-naphthalenyl)carbonyl]-4-piperidinyl]methylamino]carbonyl]-2-naphthalenyl]-1-(1-naphthalenyl)-2-oxoethyl]-phosphonic acid [Compound 24]”, the IC50 came out at 0.078 ± 0.015 µM in assay [4] and 0.0035 ± 0.0013 µM against human skin chymase.

On to “[2-[3-[[[1-[(6-methoxy-2-naphthalenyl)carbonyl]-3-pyrrolidinyl]methylamino]carbonyl]-2-naphthalenyl]-1-(1-naphthalenyl)-2-oxoethyl]-phosphonic acid [Compound 3]”, for which the IC50 in assay [4] amounted to 0.068 ± 0.019 µM; at human skin chymase, 0.072 ± 0.008 µM.

With “[2-[3-[[[4-(1,1-dimethylethyl)cyclohexyl]methylamino]carbonyl]-2-naphthalenyl]-1-(1-naphthalenyl)-2-oxoethyl]-phosphonic acid [Compound 22]”, the IC50 stood at 0.14 ± 0.04 µM in assay [4] and 0.009 ± 0.023 µM on human skin chymase.
